Measured values published in US20250163104A1, “MACROCYCLIC IMMUNOMODULATORS” (priority 2021, published 2025).
Where a SMILES comes first, the peptide text is derived from it. Bridges are numbered along the chain shown (N, C = ends). [ ]: non-standard residue; d: D form. The star is where a group is joined. ξ: configuration not given here. Ala(morpholin-4-yl) = N[C@@H](CN1CCOCC1)C(=O)O; Phe(4-COOH) = N[C@@H](Cc1ccc(C(=O)O)cc1)C(=O)O; Bip = N[C@@H](Cc1ccc(-c2ccccc2)cc1)C(=O)O; Phe(3-Me) = Cc1cccc(C[C@H](N)C(=O)O)c1; Ala(cPent) = N[C@@H](CC1CCCC1)C(=O)O; Val(3-OH) = CC(C)(O)[C@H](N)C(=O)O; aIle = CC[C@@H](C)[C@H](N)C(=O)O; 4Pal = N[C@@H](Cc1ccncc1)C(=O)O; 3Thi = N[C@@H](Cc1ccsc1)C(=O)O; Cha = N[C@@H](CC1CCCCC1)C(=O)O; dCha = N[C@H](CC1CCCCC1)C(=O)O; Carboxymethyl = O=C(O)C*; Nle = CCCC[C@H](N)C(=O)O; Orn = NCCC[C@H](N)C(=O)O; Pra = C#CC[C@H](N)C(=O)O; Dab = NCC[C@H](N)C(=O)O; Abu = CC[C@H](N)C(=O)O; Dap = NC[C@H](N)C(=O)O; ξPra = C#CCC(N)C(=O)O; Propargyl = C#CC*

Molecular target: T1, human PD-1 / PD-L1-Ig binding on Jurkat cell line over-expressing human PD-1 (Jurkat-PD-1) (Homo sapiens, UniProt Q15116)
T1 construct: expressed in transfected cells; host or cells: Jurkat
T1 sequence (Q15116 25-288): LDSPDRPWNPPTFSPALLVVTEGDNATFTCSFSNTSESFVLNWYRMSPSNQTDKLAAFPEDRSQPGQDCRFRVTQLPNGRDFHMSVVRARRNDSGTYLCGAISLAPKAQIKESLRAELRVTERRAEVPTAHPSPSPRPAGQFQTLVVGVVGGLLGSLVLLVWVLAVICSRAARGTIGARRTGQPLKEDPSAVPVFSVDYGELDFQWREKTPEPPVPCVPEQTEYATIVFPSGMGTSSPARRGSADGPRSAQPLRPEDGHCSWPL
Assay: Jurkat-PD-1 Cell Binding High-Content Screening Assay (CBA)
Format: cell-based
Settings: Jurkat-PD-1 cells, PE-labeled PD-L1-Ig 20 nM final; read-out: Jurkat HPD1_PDL1 IC50
Procedure, shortened: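 Jurkat-hPD-1 cells in DMEM with 10% fetal calf serum receive test compound and are held at 37° C for 2 h. PE-labeled PD-L1-Ig is added at 20 nM final and left for 1 hour. Cells are then fixed and Hoechst-stained, and binding is measured by imaging.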

Question: With CCCC[C@@H]1NC(=O)[C@H](CC(N)=O)NC(=O)[C@@H](CC(C)C)NC(=O)[C@H](CN)NC(=O)[C@H](C(C)C)NC(=O)[C@H](Cc2ccc(-c3ccccc3)cc2)NC(=O)[C@H](CC(C)C)NC(=O)[C@H](Cc2c[nH]c3ccccc23)NC(=O)[C@H](CC(=O)O)NC(=O)[C@H](Cc2ccncc2)NC(=O)[C@H](CN)NC(=O)CSC[C@@H](C(=O)NCC(N)=O)NC(=O)[C@H](CO)NC(=O)[C@H](C(C)C)NC1=O [Compound 1400] ({CH2CO}-[Dap][4Pal]DWL[Bip]V[Dap][dL]N[Nle]VSCG-NH2; thioether N-14) as the compound, how does the IC50 read?
Answer: 29.1 nM

Question: For Cc1cccc(C[C@@H]2NC(=O)[C@H](CC(=O)O)NC(=O)[C@H](Cc3ccc(OCC(=O)O)cc3)NC(=O)[C@H](Cc3cccnc3)NC(=O)CSC[C@@H](C(=O)N[C@@H](C)C(N)=O)NC(=O)[C@H]([C@@H](C)O)NC(=O)[C@H](C(C)C)NC(=O)[C@H](CC3CCCCC3)NC(=O)[C@H](Cc3cnc[nH]3)NC(=O)[C@@H](CC(C)C)NC(=O)[C@H](CCCN)NC(=O)[C@H](C(C)C)NC(=O)[C@H](Cc3ccc(-c4ccccc4)cc3)NC(=O)[C@H](C(C)C)NC2=O)c1 [Compound 1587], which IC50 is on record?
Answer: 26 nM

Question: C#CCC(NC(=O)[C@H](CCN)NC(=O)[C@@H]1CSCC(=O)N[C@@H](Cc2ccncc2)C(=O)N[C@@H](Cc2ccc(OCC(=O)O)cc2)C(=O)N[C@@H](CC(=O)O)C(=O)N[C@@H](Cc2c[nH]c3ccccc23)C(=O)N[C@@H](C(C)C)C(=O)N[C@@H](Cc2ccc(-c3ccccc3)cc2)C(=O)N[C@@H]([C@@H](C)CC)C(=O)N[C@@H](CCCN)C(=O)N[C@H](CC(C)C)C(=O)N[C@@H](CCN)C(=O)N[C@@H](CC(C)C)C(=O)N[C@@H](C(C)C)C(=O)N[C@@H]([C@@H](C)O)C(=O)N1)C(N)=O (stereo partly drawn) [Compound 1759] ({CH2CO}-[4Pal]Y(Carboxymethyl)DWV[Bip]I[Orn][dL][Dab]LVTC[Dab][ξPra]-NH2; thioether N-14) was tested. Which IC50 did it give?
Answer: 7.2 nM

Question: CC(C)C[C@H]1NC(=O)[C@H](CCCN)NC(=O)[C@H](C(C)C)NC(=O)[C@H](Cc2ccc(-c3ccccc3)cc2)NC(=O)[C@H](C(C)C)NC(=O)[C@H](Cc2c[nH]c3ccccc23)NC(=O)[C@H](CC(=O)O)NC(=O)[C@H](Cc2ccc(OCC(=O)O)cc2)NC(=O)[C@H](CN)NC(=O)CSC[C@@H](C(=O)N[C@@H](C)C(N)=O)NC(=O)[C@H]([C@@H](C)O)NC(=O)[C@H](C(C)C)NC(=O)[C@H](Cc2ccc(O)cc2)NC(=O)[C@H](CCN)NC1=O [Compound 1681] ({CH2CO}-[Dap]Y(Carboxymethyl)DWV[Bip]V[Orn][dL][Dab]YVTCA-NH2; thioether N-14) was tested. Which IC50 did it give?
Answer: 48.9 nM

Question: How did the IC50 turn out when Cc1cccc(C[C@@H]2NC(=O)[C@H](CC(=O)O)NC(=O)[C@H](Cc3ccc(C(=O)O)cc3)NC(=O)[C@H](Cc3ccc(OCC(=O)O)cc3)NC(=O)CSC[C@@H](C(N)=O)NC(=O)[C@H]([C@@H](C)O)NC(=O)[C@H](C(C)C)NC(=O)[C@H](CC(C)C)NC(=O)[C@H](CCN)NC(=O)[C@@H](CC(C)C)NC(=O)[C@H](CCCN)NC(=O)[C@H](CCC(=O)O)NC(=O)[C@H](Cc3ccc(-c4ccccc4)cc3)NC(=O)[C@H](C(C)C)NC2=O)c1 [Compound 1556] ({CH2CO}-Y(Carboxymethyl)[Phe(4-COOH)]D[Phe(3-Me)]V[Bip]E[Orn][dL][Dab]LVTC-NH2; thioether N-14) was run?
Answer: 90.9 nM

Question: Which IC50 does the source give for Cc1cccc(C[C@@H]2NC(=O)[C@H](CC(=O)O)NC(=O)[C@H](Cc3ccc(OCC(=O)O)cc3)NC(=O)[C@H](Cc3ccsc3)NC(=O)CSC[C@@H](C(=O)N[C@@H](CCN)C(N)=O)NC(=O)[C@H](CO)NC(=O)[C@H](C(C)(C)O)NC(=O)[C@H](CC3CCCCC3)NC(=O)[C@H](CCN)NC(=O)[C@@H](CC(C)C)NC(=O)[C@H](CCCN)NC(=O)[C@H](Cc3ccc(OCC(=O)O)cc3)NC(=O)[C@H](Cc3ccc(-c4ccccc4)cc3)NC(=O)[C@H](Cc3ccc(OCC(=O)O)cc3)NC2=O)c1 [Compound 2615] ({CH2CO}-[3Thi]Y(Carboxymethyl)D[Phe(3-Me)]Y(Carboxymethyl)[Bip]Y(Carboxymethyl)[Orn][dL][Dab][Cha][Val(3-OH)]SC[Dab]-NH2; thioether N-14) here?
Answer: 3.7 nM

Question: Which IC50 does the source give for CC(C)[C@@H]1NC(=O)[C@H](Cc2c[nH]c3ccccc23)NC(=O)[C@H](CC(=O)O)NC(=O)[C@H](Cc2ccc(C(=O)O)cc2)NC(=O)[C@H](Cc2ccc(OCC(=O)O)cc2)NC(=O)CSC[C@@H](C(=O)N[C@@H](C)C(N)=O)NC(=O)[C@H]([C@@H](C)O)NC(=O)[C@H](C(C)C)NC(=O)[C@H](CC2CCCCC2)NC(=O)[C@H](CCN)NC(=O)[C@@H](CC2CCCCC2)NC(=O)[C@H](CCCN)NC(=O)[C@H](C(C)C)NC(=O)[C@H](Cc2ccc(-c3ccccc3)cc2)NC1=O [Compound 1634] ({CH2CO}-Y(Carboxymethyl)[Phe(4-COOH)]DWV[Bip]V[Orn][dCha][Dab][Cha]VTCA-NH2; thioether N-14) here?
Answer: 20.3 nM

Question: For CC(C)C[C@H]1NC(=O)[C@H](CCCN)NC(=O)[C@H](CCC(=O)O)NC(=O)[C@H](Cc2ccc(-c3ccccc3)cc2)NC(=O)[C@H](C(C)C)NC(=O)[C@H](Cc2c[nH]c3ccccc23)NC(=O)[C@H](CC(=O)O)NC(=O)[C@H](Cc2ccc(OCC(=O)O)cc2)NC(=O)[C@H](CN)NC(=O)CSC[C@@H](C(=O)N[C@@H](C)C(N)=O)NC(=O)[C@H]([C@@H](C)O)NC(=O)[C@H](C(C)C)NC(=O)[C@H](CC2CCCCC2)NC(=O)[C@H](CCC(N)=O)NC1=O [Compound 1513] ({CH2CO}-[Dap]Y(Carboxymethyl)DWV[Bip]E[Orn][dL]Q[Cha]VTCA-NH2; thioether N-14), which IC50 is on record?
Answer: 25.7 nM

Question: Which IC50 does the source give for CC[C@@H](C)[C@@H]1NC(=O)[C@H](Cc2ccc(-c3ccccc3)cc2)NC(=O)[C@H](C(C)C)NC(=O)[C@H](Cc2c[nH]c3ccccc23)NC(=O)[C@H](CC(=O)O)NC(=O)[C@H](Cc2ccc(C(=O)O)cc2)NC(=O)[C@H](Cc2ccc(OCC(=O)O)cc2)NC(=O)CSC[C@@H](C(=O)N[C@@H](C)C(N)=O)NC(=O)[C@H]([C@@H](C)O)NC(=O)[C@H](C(C)C)NC(=O)[C@H](CC2CCCCC2)NC(=O)[C@H](CCN)NC(=O)[C@@H](CC2CCCCC2)NC(=O)[C@H](CCCN)NC1=O [Compound 1626] ({CH2CO}-Y(Carboxymethyl)[Phe(4-COOH)]DWV[Bip][aIle][Orn][dCha][Dab][Cha]VTCA-NH2; thioether N-14) here?
Answer: 51.9 nM

Question: Cc1cccc(C[C@@H]2NC(=O)[C@H](CC(=O)O)NC(=O)[C@H](Cc3ccc(C(=O)O)cc3)NC(=O)[C@H](Cc3ccncc3)NC(=O)CSC[C@@H](C(=O)N[C@@H](CCN)C(N)=O)NC(=O)[C@H](CO)NC(=O)[C@H](C(C)C)NC(=O)[C@H](CC3CCCCC3)NC(=O)[C@H](CCN)NC(=O)[C@@H](CC(C)C)NC(=O)[C@H](CCCN)NC(=O)[C@H](Cc3ccc(OCC(=O)O)cc3)NC(=O)[C@H](Cc3ccc(-c4ccccc4)cc3)NC(=O)[C@H](Cc3ccc(OCC(=O)O)cc3)NC2=O)c1 [Compound 2307] ({CH2CO}-[4Pal][Phe(4-COOH)]D[Phe(3-Me)]Y(Carboxymethyl)[Bip]Y(Carboxymethyl)[Orn][dL][Dab][Cha]VSC[Dab]-NH2; thioether N-14) was tested. Which IC50 did it give?
Answer: 12.1 nM

Question: With CC[C@H](C)[C@@H]1NC(=O)[C@H](Cc2ccc(-c3ccccc3)cc2)NC(=O)[C@H](C(C)C)NC(=O)[C@H](Cc2cccc(OC)c2)NC(=O)[C@H](CC(=O)O)NC(=O)[C@H](Cc2ccncc2)NC(=O)[C@H](CN)NC(=O)CSC[C@@H](C(=O)N[C@@H](C)C(N)=O)NC(=O)[C@H]([C@@H](C)O)NC(=O)[C@H](C(C)C)NC(=O)[C@H](CC2CCCCC2)NC(=O)[C@H](CCN)NC(=O)[C@@H](CC(C)C)NC(=O)[C@H](CCCN)NC1=O [Compound 1563] as the compound, how does the IC50 read?
Answer: 10.7 nM

Question: For CC[C@H](C)[C@@H]1NC(=O)[C@H](Cc2ccc(-c3ccccc3)cc2)NC(=O)[C@H](CC2CCCC2)NC(=O)[C@H](Cc2c[nH]c3ccccc23)NC(=O)[C@H](CC(=O)O)NC(=O)[C@H](Cc2ccc(OCC(=O)O)cc2)NC(=O)[C@H](CN)NC(=O)CSC[C@@H](C(=O)N[C@@H](C)C(N)=O)NC(=O)[C@H]([C@@H](C)O)NC(=O)[C@H](C(C)C)NC(=O)[C@H](CC2CCCCC2)NC(=O)[C@H](CCN)NC(=O)[C@@H](CC(C)C)NC(=O)[C@H](CCCN)NC1=O [Compound 1723] ({CH2CO}-[Dap]Y(Carboxymethyl)DW[Ala(cPent)][Bip]I[Orn][dL][Dab][Cha]VTCA-NH2; thioether N-14), which IC50 is on record?
Answer: 20.8 nM

Question: Which IC50 does the source give for C#CCOc1ccc(C[C@@H]2NC(=O)[C@H](Cc3ccc(-c4ccccc4)cc3)NC(=O)[C@H](Cc3ccc(OCC(=O)O)cc3)NC(=O)[C@H](Cc3cccc(C)c3)NC(=O)[C@H](CC(=O)O)NC(=O)[C@H](Cc3ccc(OCC(=O)O)cc3)NC(=O)[C@H](CC)NC(=O)CSC[C@@H](C(=O)N[C@@H](CCN)C(N)=O)NC(=O)[C@H](CCC(=O)O)NC(=O)[C@H](C(C)C)NC(=O)[C@H](CC3CCCCC3)NC(=O)[C@H](CCN)NC(=O)[C@@H](CC(C)C)NC(=O)[C@H](CCCN)NC2=O)cc1 [Compound 1843] ({CH2CO}-[Abu]Y(Carboxymethyl)D[Phe(3-Me)]Y(Carboxymethyl)[Bip]Y(Propargyl)[Orn][dL][Dab][Cha]VEC[Dab]-NH2; thioether N-14) here?
Answer: 8.3 nM

Question: Which IC50 does the source give for C#CC[C@H](NC(=O)[C@H](CCN)NC(=O)[C@@H]1CSCC(=O)N[C@@H](CN2CCOCC2)C(=O)N[C@@H](Cc2ccc(OCC(=O)O)cc2)C(=O)N[C@@H](CC(=O)O)C(=O)N[C@@H](Cc2cccc(C)c2)C(=O)N[C@@H](Cc2ccc(OCC(=O)O)cc2)C(=O)N[C@@H](Cc2ccc(-c3ccccc3)cc2)C(=O)N[C@@H](Cc2ccc(OCC(=O)O)cc2)C(=O)N[C@@H](CCCN)C(=O)N[C@H](CC(C)C)C(=O)N[C@@H](CCN)C(=O)N[C@@H](CC2CCCCC2)C(=O)N[C@@H](C(C)(C)O)C(=O)N[C@@H](CO)C(=O)N1)C(N)=O [Compound 1852] ({CH2CO}-[Ala(morpholin-4-yl)]Y(Carboxymethyl)D[Phe(3-Me)]Y(Carboxymethyl)[Bip]Y(Carboxymethyl)[Orn][dL][Dab][Cha][Val(3-OH)]SC[Dab][Pra]-NH2; thioether N-14) here?
Answer: 18.9 nM
